This is an account of results in patent publication US12637457B2, “Salt form and crystal form of JAK inhibitor, preparation method therefor, and use thereof” (SHANGHAI FUDAN-ZHANGJIANG BIO-PHARMACEUTICAL CO., LTD., priority 2020, dated 2026).

One data set deals with T1, JAK3 (Homo sapiens, UniProt P52333).
T1 construct: purchased Carna Biosciences, Inc. 08-046
Nature of the data set: HTRF in vitro enzyme activity biochemical assay, JAK3. The following applies: 1 mM ATP, 37 ng/mL JAK3. Here is the method:
(§1) Then, the concentration of the compound diluent was further diluted to 2.5-fold of the final test concentration with the kinase reaction buffer to obtain a compound solution to be tested.
(§2) The enzymatic reaction was initiated by adding a mixture of 2 μL of substrate and 2 μL of ATP prepared in kinase reaction buffer. […] The percentage of inhibition was calculated according to the formula: percentage of inhibition=100%−ratio value of a treated compound/ratio value of a treated DMSO carrier (DMSO carrier was a blank control group without drugs).
(§3) A dose-response curve was generated, and IC50 was calculated by non-linear S-shaped curve fitting using GraphPad Prism software.

The next data set addresses T2, JAK2 (Homo sapiens, UniProt O60674).
T2 construct: purchased Carna Biosciences, Inc. 08-045
Nature of the data set: HTRF in vitro enzyme activity biochemical assay, JAK2. The following applies: 1 mM ATP, 6 ng/mL JAK2. Here is the method:
as §1, §2, §3
(In general: Time-resolved FRET reads energy transfer from a long-lived donor to a nearby acceptor.)

Data set [1] in a line: Solubility test in common solvents (visual dissolution). The conditions noted are these: 25° C.±5° C., observed within 30 minutes. In kind it is physicochemical. Here is the method:
The sample that has been ground into fine powder was weighed and added to a certain volume of solvent (ambient temperature: 25° C.±5° C.), shaken strongly for 30 seconds every 5 minutes, and the dissolution was observed within 30 minutes. If there were no visually visible solute particles or droplets, the sample was regarded as completely dissolved. According to this method, the dissolution of crystal form A of the hydrochloride hydrate of the compound shown in formula I and the free base form of the compound shown in formula I in common solvents was observed, and the results are shown in Table 3.

The target in a further data set is T3, JAK1 (Homo sapiens, UniProt P23458).
T3 construct: purchased Invitrogen PV4774
Nature of the data set: HTRF in vitro enzyme activity biochemical assay, JAK1. The conditions noted are these: 1 mM ATP, 500 ng/mL JAK1. Here is the method:
as §1, §2, §3

Another data set can be described thus: Hygroscopicity study. In kind it is physicochemical. The following applies: 25° C./75%-RH for 5 days.
A further data set in a line: Single dose PK study. In kind it is in vivo. The conditions noted are these: female SD rats, single oral dose 3 mg/kg, 0.5% CMC-Na suspension, plasma. As to the method:
Two groups of SD rats (3 females in each group) were given a single oral dose of 3 mg/kg free base of the compound shown in formula I and a single oral dose of 3 mg/kg crystal form A of hydrochloride hydrate of the compound shown in formula I, respectively. The drug was administered as a 0.5% CMC-Na suspension. Samples were taken at different times until 24 hours, and the drug concentration of the compound shown in formula I in plasma was analyzed by LC-MS/MS method, and the final calculation results are shown in Table 8.
Chromatographic Conditions of LC-MS/MS Method for Compound Shown in Formula I:
• instrument model, SHIMADZU LC-30AD liquid phase system; chromatographic column, ACQUITY UPLC® BEH C18 (2.1×50 mm, 1.7 μm); column temperature, 40° C.; injection volume, 1 μL; flow rate of 0.6 mL/min; run time of 6 min; • the mobile phase gradient settings are shown in Table 5.
Instrument model, AB SCIEX TRIPLE QUAD 6500 mass spectrometer; ion source, electrospray (ESI); ionization mode, positive ion scanning; multi-ion (MRM) ion pairs are shown in Table 6; instrument parameters are shown in Table 7.

Data set [2] in a line: Stability test in stable chamber (temperature and humidity). The class given is physicochemical. The following applies: for Content of compound shown in formula I: HPLC. Here is the method: Whether the temperature and humidity have an impact on the stability of the crystal form A of the hydrochloride hydrate of the compound shown in formula I was tested: […]
The next data set deals with T4, TYK2 (Homo sapiens, UniProt P29597).
T4 construct: purchased Carna Biosciences, Inc. 08-147
T4 sequence (P29597 871-1187 limits assumed): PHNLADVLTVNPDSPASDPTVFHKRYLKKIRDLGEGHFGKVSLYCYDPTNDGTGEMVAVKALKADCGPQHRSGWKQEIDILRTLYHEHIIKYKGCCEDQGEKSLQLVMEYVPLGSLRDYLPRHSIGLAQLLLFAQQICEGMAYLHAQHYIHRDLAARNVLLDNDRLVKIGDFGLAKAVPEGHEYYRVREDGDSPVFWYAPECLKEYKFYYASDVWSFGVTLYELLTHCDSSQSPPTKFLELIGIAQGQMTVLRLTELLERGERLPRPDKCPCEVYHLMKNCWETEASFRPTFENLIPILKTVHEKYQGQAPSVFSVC
Nature of the data set: HTRF in vitro enzyme activity biochemical assay, TYK2. The conditions noted are these: 1 mM ATP, 100 ng/mL TYK2. As to the method:
as §1, §2, §3

The nature of data set [3]: Comparison of thermodynamic stability of crystal forms in saturated ethanol/water solution. The conditions noted are these: ethanol/water 9:1 saturated solution, 50° C., stirred 24 hours. In kind it is physicochemical. Here is the method:
Crystal form A, crystal form E and crystal form F were respectively dissolved in a mixed solvent of ethanol/water (volume ratio=9:1) to prepare a saturated solution. The saturated solution was heated to 50° C., and 10 mg of crystal form A, crystal form E and crystal form F were respectively added with stirring. The mixture was kept at 50° C., stirred for 24 hours, then filtered, and the XRPD of the resulting crystals was respectively determined (XRPD patterns of crystals precipitated by adding crystal forms A, E and F are shown in FIGS. 10, 11 and 12, respectively).

The mark [4] stands for this setting: 40° C./60%-RH and 25° C./75%-RH, after 30 days.
The mark [5] stands for this setting: listed as Free base of compound shown in formula I.

One may read the IC50 as the concentration that inhibits the measured activity by half. As a reminder, the Cmax is the maximum level reached in the sampled fluid or tissue. A word on the AUC(0-t): it is the area under the concentration-time curve up to a stated or last time point. Low values mean low exposure, high ones high exposure.

Read-outs that look alike come from different tables or passages of the source.

T2 sequence (O60674 826-1132 limits assumed): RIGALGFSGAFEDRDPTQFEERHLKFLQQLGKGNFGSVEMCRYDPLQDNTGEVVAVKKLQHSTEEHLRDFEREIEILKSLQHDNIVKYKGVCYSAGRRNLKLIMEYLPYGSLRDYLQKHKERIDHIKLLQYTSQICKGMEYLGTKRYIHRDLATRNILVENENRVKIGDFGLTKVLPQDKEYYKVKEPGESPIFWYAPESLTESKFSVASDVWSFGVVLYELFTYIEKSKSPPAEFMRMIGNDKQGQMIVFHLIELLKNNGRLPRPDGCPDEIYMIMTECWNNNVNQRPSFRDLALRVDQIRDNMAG
T1 sequence (P52333 795-1124 limits assumed): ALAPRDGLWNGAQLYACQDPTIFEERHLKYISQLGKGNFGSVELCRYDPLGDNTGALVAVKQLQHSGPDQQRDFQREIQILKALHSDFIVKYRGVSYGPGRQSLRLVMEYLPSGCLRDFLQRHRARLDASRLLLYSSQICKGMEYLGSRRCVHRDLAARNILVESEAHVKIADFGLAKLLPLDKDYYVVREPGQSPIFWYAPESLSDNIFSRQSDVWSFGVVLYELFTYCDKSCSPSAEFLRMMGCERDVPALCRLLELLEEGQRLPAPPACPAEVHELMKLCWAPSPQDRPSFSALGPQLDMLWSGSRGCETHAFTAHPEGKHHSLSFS
T3 sequence (P23458 866-1154 limits assumed): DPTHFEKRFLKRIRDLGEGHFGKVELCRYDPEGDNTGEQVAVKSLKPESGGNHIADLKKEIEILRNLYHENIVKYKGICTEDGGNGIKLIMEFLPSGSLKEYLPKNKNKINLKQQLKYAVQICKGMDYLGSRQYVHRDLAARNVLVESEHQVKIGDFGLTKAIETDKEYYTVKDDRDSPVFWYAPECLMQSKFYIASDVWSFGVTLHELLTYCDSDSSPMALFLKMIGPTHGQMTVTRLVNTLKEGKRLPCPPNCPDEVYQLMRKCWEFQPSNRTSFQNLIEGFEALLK

Turning to `O=C(Nc1cn2c(-c3ccc(CN4CCS(=O)(=O)CC4)cc3F)cccc2n1)C1CC1` [Crystal form A], the half-maximal inhibitory concentration (IC50) against JAK3 was 5520 nM; on JAK2, 462 nM; against JAK1 it was 145 nM; against TYK2, 653 nM. The Solubility in ethanol entry in [1] was “Soluble”. Besides, the Solubility in methanol result in [1] is “Very soluble”. Also, the “Solubility in simulated gastric juice” value in [1] was “Sparingly soluble”. For the same compound, the Solubility in water result in data set [1] is given as “Soluble”. This compound also displayed a Hygroscopic weight gain in the data set “Hygroscopicity study” of 2.4%. Further, the maximum concentration (Cmax) in “Single dose PK study” is 456 ng/mL. This compound also displayed an AUClast in “Single dose PK study” (up to 24 hours) of 1390 ng·h/mL. Also, the “Change in XRPD compared with initial crystal form” value in data set [2] (setting [4]) is “no significant change”. Also, the “Change in appearance compared with initial crystal form” value in data set [2] (setting [4]) was “no significant change”. Also, the “Content of compound shown in formula I” value in [2] (initial) worked out at 99.901%; in data set [2] (placed at 25° C./75%-RH for 30 days) it was 99.899%; in [2] (placed at 40° C./75%-RH for 30 days) it was 99.905%. Further, the “Crystal form of the solid after stirring in saturated solution (XRPD)” value (shortened to “Crystal form of the solid after stirring”) in data set [3] is reported as “still crystal form A”.

`O=C(Nc1cn2c(-c3ccc(CN4CCS(=O)(=O)CC4)cc3F)cccc2n1)C1CC1` [Crystal form C] gave a Hygroscopic weight gain in the data set “Hygroscopicity study” of 6.1%.

For `O=C(Nc1cn2c(-c3ccc(CN4CCS(=O)(=O)CC4)cc3F)cccc2n1)C1CC1` [Crystal form D], the Hygroscopic weight gain in “Hygroscopicity study” stood at 8.1%.

Take `O=C(Nc1cn2c(-c3ccc(CN4CCS(=O)(=O)CC4)cc3F)cccc2n1)C1CC1` [Crystal form E]: in “Hygroscopicity study”, the Hygroscopic weight gain came to 5.3%. Besides, the “Crystal form of the solid after stirring” value in data set [3] is reported as “transformed into crystal form A”.

With `O=C(Nc1cn2c(-c3ccc(CN4CCS(=O)(=O)CC4)cc3F)cccc2n1)C1CC1` [Crystal form F], the Hygroscopic weight gain in the data set “Hygroscopicity study” was determined as 4.9%. Also, in data set [3], the “Crystal form of the solid after stirring” value is given as “transformed into crystal form A”.

On to `O=C(Nc1cn2c(-c3ccc(CN4CCS(=O)(=O)CC4)cc3F)cccc2n1)C1CC1` [Free base], for which, in data set [1] (setting [5]), the Solubility in ethanol result is “Slightly soluble”, the Solubility in methanol result was “Slightly soluble”, the “Solubility in simulated gastric juice” value was “Insoluble” and the Solubility in water entry was “Very slightly soluble”. Moreover, the peak concentration (Cmax) in “Single dose PK study” (female, SD, rat, po, 3 mg/kg, read-out: Cmax) stood at 352 ng/mL. In “Single dose PK study” (female, SD, rat, po, 3 mg/kg, up to 24 hours), this compound came in with an AUC(0-t) of 987 ng·h/mL.
